Positions of bridges follow the written chain, without caps; N, C: chain ends.
Experiments:
[1] = tested on: BALB/c mice with bleomycin-induced lung fibrosis; assay: Bleomycin (plus cyclophosphamide)-induced pulmonary fibrosis in BALB/c mice
Method: The endpoints in this model are survival and histomorphometric evaluation of the extent of fibrosis in lung tissue.
The test compound, in lyophilized form, is dissolved in 50 mM acetate buffer, pH 4.5 at an initial concentration of 20 mg/mL. The stock solution is then divided into several one mL aliquots, snap frozen and stored at −70° C. until used. On the Day of use, each aliquot is thawed and further diluted to a required working concentration in PBS, pH 7.5. The working concentration is determined from the intended dose (mg/kg body weight) and the oral administration volume.
In addition, the mice are administered a single intraperitoneal injection of cyclophosphamide (150 mg/kg of body weight). The animals challenged with Bleomycin plus Cyclophosphamide are separated into two groups, each group having a minimum of 6 animals. The vehicle treated group (Group 1) receives daily oral doses of PBS, pH 7.5. […] These treatments are continued for up to 16 days after Bleomycin administration. A third control group of mice receive intra-tracheal PBS rather than Bleomycine and Cyclophosphamide.
After completion of the in-life study, the animals are euthanized (methoxyflurane anesthesia), and the lungs are perfused with ice cold Hank's balanced salt solution to remove blood-born cells, and then inflated under a constant pressure of 30 cm H2O with 10% normal buffered formalin (NBF). Lungs are ligated at the trachea, removed en bloc, and immersed in NBF for 24 hr. After which, tissue samples are changed to 70% alcohol before paraffin embedding, followed by sectioning and staining with hematoxylin, eosin and Masson's Trichrome. Sections are analyzed microscopically to evaluate pulmonary fibrosis by determining the degree of collagen accumulation (Masson's Trichrome).
Pulmonary fibrosis was evaluated histomorphometricly by determining the percentage of field with collagen accumulation lung sections stained with Masson's Trichrome.

[2] = tested on: Alk-3 deleted mice and littermate control mice, IRI; assay: IRI in Alk-3 deleted (γGT-Cre; Alk3 flox/flox) and control mice; type: in vivo; details: for renal injury (tubular necrosis), IRI: THR-123 orally 5 mg/kg/day
Method: FIG. 76A-FIG. 76T THR-123 acts on tubule Alk3 as a receptor in kidney disease models. FIG. 76A-FIG. 76D, The effect of THR-123 on the IRI model kidney injury in Alk3^flox/flox and […]GTCre; Alk3^flox/flox mice. After ischemia reperfusion injury the mice were given THR-123 orally (5 mg/kg/day) till the day of sacrifice. FIG. 76A-FIG. 76C, the representative H&E staining picture of indicated group of mice are shown. FIG. 76D. Percentage renal tubular necrosis in IRI. Ten fields in each group were analyzed. Data are shown as mean±s.e.m. in the graph. FIG. 76E-FIG. 76T, The effect of THR-123 on the NTN model kidney injury in Alk3^flox/flox and gGTCre; Alk3^flox/flox mice. Six weeks after NTN was introduced in the indicated groups of mice, mice were treated with PBS or THR-123 orally. FIG. 76E-FIG. 76H, the representative MTS staining picture of indicated group of mice are shown. FIG. 76I, Morphometric analyses from 9 weeks of NTN models in indicated groups. FIG. 76J-FIG. 76N, Macrophage accumulation analysis in the kidney of NTN model in Alk3^flox/flox and gGTCre; Alk3^flox/flox mice. FIG. 76J-FIG. 76M, Mac-1 immunofluorescence study of indicated groups of mice. FIG. 76N, The number of macrophages per field of view (×400 magnification) was assessed by counting positively labeled cells in 5 random fields of view per slide, with 5 slides per experimental group. Data are shown as mean±s.e.m. in the graph. FIG. 76O-FIG. 76S, EMT analysis, FIG. 76O-FIG. 76R, E-cadherin/FSP1 immunolabeling of kidney in NTN-induced Alk3^flox/flox and GTCre; Alk3^flox/flox mice treated with either PBS or THR-123. FIG. 76S. Percent of E-cadherin/FSP1 double positive tubule. 500 tubules per slide, 5 slides per experimental group were analyzed. Data are expressed as mean±s.e.m. in the graph. FIG. 76T, Blood urea nitrogen measurement in 6 and 9 weeks of NTN in indicated groups of mice (all n=4).
Ischemia reperfusion injury (IRI) was induced by clamping of the left renal pedicle for 25 minutes. After ischemia reperfusion injury the mice were given THR-123 orally (5 mg/kg/day) or PBS till the day of sacrifice. FIG. 77A-FIG. 77C. Mac-1 immunofluorescence studies in the indicated groups. FIG. 77D. The number of macrophages per field of view (×400 magnification) was assessed by counting positively labeled cells in 5 random fields of view per slide, with 5 slides per experimental group.
Ischemia reperfusion injury (IRI) was induced by clamping of the left renal pedicle for 25 minutes. After ischemia reperfusion injury the mice were given THR-123 orally (5 mg/kg/day) or PBS till the day of sacrifice. FIG. 78A-FIG. 78C. Tubule cell apoptosis was analyzed in frozen kidney sections of indicated groups of animals by TUNEL staining. FIG. 78D. Quantification of TUNEL positive tubule cells. The number of TUNEL positive tubules per field of view (×200 magnification) was assessed by counting positively labeled cells in 5 random fields of view per slide, with 5 slides per experimental group.
THR-123 binds to Alk-3 receptor and induced actions that mimic BMP7 (vide supra). […] To functionally validate the target of THR-123 in exerting such reno-protective activity in mice, the efficacy of THR-123 in the Alk-3 deleted mice subjected to renal injury was tested (FIG. 42 K). The Alk-3 deleted mice and their littermate (control) mice were subjected to IRI.
Alk-3 flox mice are provided by Dr. Yuji Mishina, National Institutes of Health with material transfer agreements. γGT-Cre mice are provided from Dr. Eric Neilson, Vanderbilt University Medical Center. NTN is induced by the method described above.

[3] = In vitro stability in rat blood, plasma and PBS-mannitol buffer (LC-MS-MS); type: in vitro ADME; details: 0.1 mg/mL, 37° C.
Method: FIG. 46 In vitro stability of THR-123. THR-123 was spiked into freshly harvested rat blood (male Sprague-Dawley, 0.35 kg BW) and plasma, and PBS-mannitol buffer solution at a final concentration of 0.1 mg/mL. Blood, plasma and buffer master tubes were incubated at 37° C. for up to 6 h and duplicate samples of 500 μl (blood) and 250 μl (plasma and […]) were collected for analysis at 0, 7.5, 15, 30, 60, 120, 240 and 360 min. Samples were analyzed for THR-123 using an LC-MS-MS method having a limit of detection of 1 μg/ml.
The stability of THR-123 in whole blood and plasma was tested in vitro. In PBS-mannitol buffer, THR-123 was stable for over 400 minutes (FIG. 46).

[4] = tested on: Smad 1/5/8; assay: Smad 1/5/8 phosphorylation and nuclear translocation in HK-2 cells; type: cell-based, human
Method: Human renal proximal tubule epithelial cells (HK-2) were incubated in the presence (right panel) and absence (left panel) of THR-123. The cells were washed, and then incubated with the primary antibody against phospho Smad 1/5/8, followed by immunostaining with a fluorescently labeled secondary antibody. The significance of pSmad 1/5/8 in renal fibrosis is tied to BMP7 suppression of TGF-β-dependent profibrotic pathways, which are central to renal fibrotic injury. Specifically, BMP7 suppression of such TGF-β-dependent profibrotic pathways is mediated in part by the activation of downstream BMP target proteins, Smad 1, 5, and 8. (Manson S R et al., J. Urol. 85:2523-30, 2011).

(H)-CYFDDSSNVLCKKYRS-(OH) (H-CYFDDSSNVLCKKYRS-OH; disulfide 1-11; SMILES CC(C)C[C@@H]1NC(=O)[C@H](C(C)C)NC(=O)[C@H](CC(N)=O)NC(=O)[C@H](CO)NC(=O)[C@H](CO)NC(=O)[C@H](CC(=O)O)NC(=O)[C@H](CC(=O)O)NC(=O)[C@H](Cc2ccccc2)NC(=O)[C@H](Cc2ccc(O)cc2)NC(=O)[C@@H](N)CSSC[C@@H](C(=O)N[C@@H](CCCCN)C(=O)N[C@@H](CCCCN)C(=O)N[C@@H](Cc2ccc(O)cc2)C(=O)N[C@@H](CCCNC(=N)N)C(=O)N[C@@H](CO)C(=O)O)NC1=O) [SEQ ID NO: 1]
pulmonary fibrosis (histomorphometric analysis of lung tissue) ([1]; daily oral dose of 5 mg/kg): significantly less pulmonary fibrosis
survival rate at 16 days ([1]; daily oral dose of 5 mg/kg, vehicle 100% mortality by 8 days): 80%
lung fibrosis score (percentage of field with collagen accumulation, Masson's Trichrome) ([1]; day 16, oral, vehicle 31% at ten days): 16%
survival by day 16 ([1]; oral): survival of all mice
macrophage accumulation, IRI ([2]; Alk-3 deleted mice): does not inhibit macrophage accumulation
tubular apoptosis, IRI ([2]; Alk-3 deleted mice): does not inhibit apoptosis
renal injury (tubular necrosis), IRI ([2]; Alk-3 deleted mice): does not exhibit therapeutic effect
macrophage accumulation, IRI ([2]; control mice): reduction in macrophage accumulation
tubular apoptosis, IRI ([2]; control mice): decreased tubular apoptosis
renal injury (tubular necrosis), IRI ([2]; control mice): inhibited renal injury
half-life in rat plasma [3]: 5.97 h
half-life in rat whole blood [3]: 1.17 h
Smad 1/5/8 phosphorylation and nuclear translocation [4]: induces Smad 1/5/8 phosphorylation and nuclear translocation
